Measurements taken from patent US11234982B2, “Methods for treating ocular surface pain” (NOVARTIS AG, priority 2019, dated 2022).
“Also recorded” adds a separate entry of the source.

Test system: patients undergoing photorefractive keratectomy (PRK) surgery
Assay: PRK study: adverse events
Type: in vivo, human
Procedure: The study was a proof of concept, double-masked, randomized, vehicle-controlled study of compound I administered as eye drops in addition to standard of care treatment in patients after PRK surgery. PRK surgery was performed as an outpatient procedure under topical anesthesia with removal of the corneal epithelium to expose the stroma for the laser ablation. Compound I dosing was as single eye drop of 2.5% (25 mg/ml, 0.925 mg/drop), administered four times daily (every six hours) in one eye from immediate post-op (time 0) to last dose at 72 hours.
Safety assessments consisted of collecting all AEs, SAEs, with their severity and relationship to study drug. Only signs and symptoms greater than the listed ranges of either severity or duration were reported as AEs.
Adverse events and serious adverse events included an assessment of both systemic and ocular assessments. Systemic safety assessments included regular assessments of height and weight, vital signs, reporting medication errors including misuse/abuse, pregnancy reporting and early phase safety monitoring. The misuse/abuse, pregnancy reporting and early phase safety monitoring were not assessed for the study. Ocular safety assessments included the following: • Best-corrected visual acuity (BCVA) and uncorrected visual acuity (UCVA): Was measured at each visit using an ETDRS visual acuity chart at 4 meters (13 feet) or 1 meter (for patients that cannot read the 4 meter chart). The BCVA scoring was done based on the number of correctly read letters plus 30. If visual acuity was so poor that the patient could not read any of the largest letters at 1 meter, count fingers and hand movement vision and light perception was tested. • Intraocular Pressure (TOP): IOP measurements were conducted with applanation tonometry or Tonopen. • Dilated fundus exam: The dilated fundus examination included ophthalmoscopic assessments of the vitreous, retina/macula/choroid, and optic nerve. Evaluations for retinal tear/detachment, retinal hemorrhage, vitreous hemorrhage density, vitreous haze grading and abnormal findings were done and scored according to grading criteria. • Ocular hyperemia: Conjunctival redness of the bulbar conjunctiva in each eye at the slit lamp according to the McMonnies redness scale was graded. […] By adjusting the calibrated slit beam width and height, the maximum horizontal (wound width) and vertical dimensions (wound height) of the surgical epithelial wound was estimated. The evaluation was performed until wound closure and report of wound size as 0 horizontal and 0 vertical dimensions. • Slit-lamp biomicroscopy: Ocular signs (eyelids/conjunctiva, cornea, lens, and iris/anterior chamber) was assessed in both eyes by slit lamp biomicroscopy according to the grading criteria. • Blink rate: A blink was defined as a bilateral paroxysmal closure of the eyelids (duration<1 second) in the absence of a provoking external stimulus. Each blink assessment lasted for 2 min (or as close to 2 minutes as possible with minimum time 1 minute) and the obtained blink rate was averaged to calculate blink rate in blinks/min. • Tear production (Schirmer's test without anesthesia): The test was performed without anesthetic in both eyes simultaneously. Tear secretion was measured in millimeters of the length of strip wetted by tears. […] The strip was wetted with 1 drop of sterile saline and flicked to remove excess saline. The patient blinked several times to ensure dispersion of the dye throughout the tear film prior to grading on a scale of 0-3 (0=Normal, No staining; 1=Mild, Superficial stippling micropunctate staining; 2=Moderate, Macropunctate staining with some coalescent areas and 3=Severe, Numerous coalescent macropunctate areas and/or patches) for each of 5 zones (central plus 4 quadrants).

In the case of `CC(C)c1nc2cc(O)ccc2c(=O)n1-c1ccc(C#N)cc1` [Compound I, 4-(7-hydroxy-2-isopropyl-4-oxo-4H-quinazolin-3-yl)-benzonitrile], the “Non-ocular AE Arthralgia: Procedure related” value (Compound I 2.5%) is reported as “no”, the “Non-ocular AE Arthralgia: Severity” value (Compound I 2.5%) is reported as “mild” and the “Non-ocular AE Headache: Procedure related” value (Compound I 2.5%) is reported as “no”. The “Non-ocular AE Headache: Severity” value (Compound I 2.5%) was “mild”, the “Non-ocular AE Nasopharyngitis: Procedure related” value (Compound I 2.5%) was “no” and the “Non-ocular AE Nasopharyngitis: Severity” value (Compound I 2.5%) was “mild, mild”. The “Non-ocular AE Oropharyngeal Pain: Procedure related” value (Compound I 2.5%) was “no”, the “Non-ocular AE Oropharyngeal Pain: Severity” value (Compound I 2.5%) was “mild” and the “Non-ocular AE Pyrexia: Procedure related” value (Compound I 2.5%) was “no”. For the same molecule, the “Non-ocular AE Pyrexia: Severity” value (Compound I 2.5%) was “moderate”, the “Non-ocular AE Sinus Congestion: Procedure related” value (Compound I 2.5%) was “no” and the “Non-ocular AE Sinus Congestion: Severity” value (Compound I 2.5%) was “moderate”. For the same molecule, the “Non-ocular AE Sinusitis: Procedure related” value (Compound I 2.5%) was “no”, the “Non-ocular AE Sinusitis: Severity” value (Compound I 2.5%) was “moderate” and the “Non-ocular AE Vomiting: Procedure related” value (Compound I 2.5%) was “no”. For the same molecule, the “Non-ocular AE Vomiting: Severity” value (Compound I 2.5%) was “moderate”, the “Ocular AE Corneal Opacity: Procedure related” value (Compound I 2.5%) was “yes” and the “Ocular AE Corneal Opacity: Severity” value (Compound I 2.5%) was “mild”. The “Ocular AE Posterior Vitreous Detachment: Procedure related” value (Compound I 2.5%) was “no”, the “Ocular AE Posterior Vitreous Detachment: Severity” value (Compound I 2.5%) was “mild” and the “Ocular AE Punctate Keratitis: Procedure related” value (Compound I 2.5%) was “yes”. The “Ocular AE Punctate Keratitis: Severity” value (Compound I 2.5%) was “mild”, the “Non-ocular AE Arthralgia: patients” value (Compound I 2.5%, N = 40) was 1 (2.5) n (%) and the “Non-ocular AE Headache: patients” value (Compound I 2.5%, N = 40) was 1 (2.5) n (%). The “Non-ocular AE Nasopharyngitis: patients” value (Compound I 2.5%, N = 40) was 2 (5.0) n (%), the “Non-ocular AE Oropharyngeal Pain: patients” value (Compound I 2.5%, N = 40) was 1 (2.5) n (%) and the “Non-ocular AE Pyrexia: patients” value (Compound I 2.5%, N = 40) was 1 (2.5) n (%). The “Non-ocular AE Sinus Congestion: patients” value (Compound I 2.5%, N = 40) was 1 (2.5) n (%), the “Non-ocular AE Sinusitis: patients” value (Compound I 2.5%, N = 40) was 1 (2.5) n (%) and the “Non-ocular AE Tinnitus: patients” value (Compound I 2.5%, N = 40) was 0 n (%). For the same molecule, the “Non-ocular AE Vomiting: patients” value (Compound I 2.5%, N = 40) was 1 (2.5) n (%), the “Number of AEs” value (Compound I 2.5%, N = 40) was 12 and the “Number of drug-related AEs” value (Compound I 2.5%, N = 40) was 0. For the same molecule, the “Number of mild severity AEs” value (Compound I 2.5%, N = 40) was 8, the “Number of moderate severity AEs” value (Compound I 2.5%, N = 40) was 4 and the “Number of non-ocular AEs” value (Compound I 2.5%, N = 40) was 9. For the same molecule, the “Number of ocular AEs” value (Compound I 2.5%, N = 40) was 3, the “Number of procedure-related AEs” value (Compound I 2.5%, N = 40) was 2 and the “Number of severe AEs” value (Compound I 2.5%, N = 40) was 0. For the same molecule, the “Ocular AE Corneal Infiltrate: patients” value (Compound I 2.5%, N = 40) was 0 n (%), the “Ocular AE Corneal Opacity: patients” value (Compound I 2.5%, N = 40) was 1 (2.5) n (%) and the “Ocular AE Posterior Vitreous Detachment: patients” value (Compound I 2.5%, N = 40) was 1 (2.5) n (%). For the same molecule, the “Ocular AE Punctate Keratitis: patients” value (Compound I 2.5%, N = 40) was 1 (2.5) n (%), the “Patients with at least one AE” value (Compound I 2.5%, N = 40) was 8 (20) n (%) and the “Patients with at least one non-ocular AE” value (Compound I 2.5%, N = 40) was 6 (15) n (%). For the same molecule, the “Patients with at least one ocular AE” value (Compound I 2.5%, N = 40) was 3 (7.5) n (%), the “Differences in safety between compound I and Vehicle” value (PRK study) was “no observed clinically meaningful differences in safety” and the “Deaths, SAEs, discontinuations due to AEs” value (PRK study, 2.5% four times daily for 72 hours) was “no deaths or SAEs or discontinuation of the drug or discontinuation from the study due to AEs; also recorded: no deaths, or serious or severe AEs, treatment discontinuations or study discontinuations”.
